In PubChem BioAssay AID248 (DTP/NCI, 2004):
Where “and” joins values, the source holds several entries; their conditions need not be identical. Equal values may be shown once. Inconclusive results and toxic doses are left out. Rule as the data show it: active = T/C of 150% or more; inactive = T/C below 125%.

Tested on: L1210 leukemia ip in BDF1 mice, survival T/C
Assay: NCI In Vivo Anticancer Drug Screen. Data for tumor model L1210 Leukemia (intraperitoneal) in B6D2F1 (BDF1) mice
Conditions: endpoint: mean survival time, higher = longer survival
Procedure, shortened: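 Mice bearing the transplanted tumor received compound or vehicle. Survival of the treated group was divided by that of the vehicle-treated control group to give the ratio.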

[1] = dose: 50.0 mg/kg/injection, schedule: Q01DX009 (ip), vehicle: saline
[2] = dose: 100.0 mg/kg/injection, schedule: Q01DX009 (ip), vehicle: saline
[3] = dose: 100.0 mg/kg/injection, schedule: Q04DX003 (ip), vehicle: saline
[4] = dose: 200.0 mg/kg/injection, schedule: Q01DX009 (ip), vehicle: saline
[5] = dose: 200.0 mg/kg/injection, schedule: Q04DX003 (ip), vehicle: saline
[6] = dose: 400.0 mg/kg/injection, schedule: Q04DX003 (ip), vehicle: saline
[7] = dose: 100.0 mg/kg/injection, schedule: Q01DX001 (ip), vehicle: Klucel (hydroxypropylcellulose) (HPC)
[8] = dose: 200.0 mg/kg/injection, schedule: Q01DX001 (ip), vehicle: Klucel (hydroxypropylcellulose) (HPC)
[9] = dose: 100.0 mg/kg/injection, schedule: Q04DX003 (ip), vehicle: Klucel (hydroxypropylcellulose) (HPC)
[10] = dose: 200.0 mg/kg/injection, schedule: Q04DX003 (ip), vehicle: Klucel (hydroxypropylcellulose) (HPC)
[11] = dose: 400.0 mg/kg/injection, schedule: Q04DX003 (ip), vehicle: Klucel (hydroxypropylcellulose) (HPC)
[12] = dose: 100.0 mg/kg/injection, schedule: Q01DX001 (ip), vehicle: saline
[13] = dose: 200.0 mg/kg/injection, schedule: Q01DX001 (ip), vehicle: saline
[14] = dose: 400.0 mg/kg/injection, schedule: Q01DX001 (ip), vehicle: saline
[15] = dose: 100.0 mg/kg/injection, schedule: Q01DX001 (ip), vehicle: carboxymethylcellulose (CMC)
[16] = dose: 200.0 mg/kg/injection, schedule: Q01DX001 (ip), vehicle: carboxymethylcellulose (CMC)
[17] = dose: 400.0 mg/kg/injection, schedule: Q01DX001 (ip), vehicle: carboxymethylcellulose (CMC)
[18] = dose: 400.0 mg/kg/injection, schedule: Q01DX001 (ip), vehicle: Klucel (hydroxypropylcellulose) (HPC)

Measured: T/C

CCCOP(OCCC)OCCC
inactive: [1] 93 % of control | [2] 101 % of control | [3] 103 % of control | [4] 98 % of control | [5] 95 % of control

NC(N)=N/N=C(/C=N/N=C(N)N)C(O)C(O)CO (stereo not given)
inactive: dose: 15.0 mg/kg/injection, schedule: Q01DX Z (ip), vehicle: carboxymethylcellulose (CMC) 101 % of control | dose: 30.0 mg/kg/injection, schedule: Q01DX Z (ip), vehicle: carboxymethylcellulose (CMC) 98 % of control | [1] 98 % of control | dose: 60.0 mg/kg/injection, schedule: Q01DX Z (ip), vehicle: carboxymethylcellulose (CMC) 104 % of control | [2] 98 % of control | [3] 102 % of control | dose: 120.0 mg/kg/injection, schedule: Q01DX Z (ip), vehicle: carboxymethylcellulose (CMC) 101 % of control | [4] 95 % of control | [5] 94 % of control | [6] 100 % of control

ClC1(Cl)C2CC3C4C=CC(C4)C3C21 (stereo not given)
inactive: [7] 108 % of control | [8] 100 % of control

Nc1ccccc1-c1ccccc1N
inactive: dose: 25.0 mg/kg/injection, schedule: Q04DX002 (ip), vehicle: saline 100 % of control | dose: 50.0 mg/kg/injection, schedule: Q04DX002 (ip), vehicle: saline 98 % of control | dose: 100.0 mg/kg/injection, schedule: Q01DX009 (ip), vehicle: Klucel (hydroxypropylcellulose) (HPC) 96 % of control | dose: 100.0 mg/kg/injection, schedule: Q04DX002 (ip), vehicle: saline 114 % of control | [9] 94 % of control | dose: 200.0 mg/kg/injection, schedule: Q01DX009 (ip), vehicle: Klucel (hydroxypropylcellulose) (HPC) 102 % of control | [10] 91 % of control | dose: 400.0 mg/kg/injection, schedule: Q01DX009 (ip), vehicle: Klucel (hydroxypropylcellulose) (HPC) 93 % of control | [11] 104 % of control

CC(=O)CC(=O)Nc1ccc(Cc2ccc(Br)cc2)cc1
inactive: [12] 96 % of control | [13] 95 % of control | [14] 91 % of control

ClCCc1ccc(-n2cnc3c(Cl)ncnc32)cc1
inactive: dose: 50.0 mg/kg/injection, schedule: Q01DX001 (ip), vehicle: carboxymethylcellulose (CMC) 104 % of control | [15] 106 % of control | [16] 101 % of control | [17] 98 % of control

Cc1ccc(S(=O)(=O)OCC(F)(F)C(F)(F)C(F)(F)COS(=O)(=O)c2ccc(C)cc2)cc1
inactive: dose: 75.0 mg/kg/injection, schedule: Q04DX002 (ip), vehicle: saline with Tween-80 88 % of control | dose: 150.0 mg/kg/injection, schedule: Q04DX002 (ip), vehicle: saline with Tween-80 91 % of control | dose: 300.0 mg/kg/injection, schedule: Q04DX002 (ip), vehicle: saline with Tween-80 95 % of control

C/C(=N/O)c1ccc(C)s1
inactive: [15] 94 % of control | [16] 100 % of control | [17] 100 % of control

NOCc1cccc2cccnc12
inactive: dose: 25.0 mg/kg/injection, schedule: Q01DX009 (ip), vehicle: saline 100 % of control | [1] 100 % of control | [2] 97 % of control | [3] 89 % of control | [5] 94 % of control | [6] 96 % of control

C[Si](C)(C)n1ccnc1
inactive: [3] 100 % of control | [5] 105 % of control | [6] 94 % of control

Clc1ccc2c(c1)C([P+](c1ccccc1)(c1ccccc1)c1ccccc1)c1cc(Cl)cc(Cl)c1-2 (stereo not given)
inactive: [7] 95 % of control | [9] 102 % of control | [8] 93 % of control | [10] 96 % of control | [18] 95 % of control | [11] 104 % of control

CCC1(C)CC=C2C(=CCC3C(C)(CO)CCCC23C)C1 (stereo not given)
inactive: dose: 50.0 mg/kg/injection, schedule: Q04DX002 (ip), vehicle: other 104 % of control | dose: 100.0 mg/kg/injection, schedule: Q04DX002 (ip), vehicle: other 93 % of control | dose: 200.0 mg/kg/injection, schedule: Q04DX002 (ip), vehicle: other 96 % of control

CN(C)CC/C=C1\c2ccccc2C(C)(C)c2ccc(Cl)cc21
inactive: dose: 2.0 mg/kg/injection, schedule: Q01DX015 (ip), vehicle: carboxymethylcellulose (CMC) 97 % of control | dose: 4.0 mg/kg/injection, schedule: Q01DX015 (ip), vehicle: carboxymethylcellulose (CMC) 96 % of control | dose: 8.0 mg/kg/injection, schedule: Q01DX015 (ip), vehicle: carboxymethylcellulose (CMC) 92 % of control | dose: 12.5 mg/kg/injection, schedule: Q01DX009 (ip), vehicle: acetone 86 % of control | dose: 16.0 mg/kg/injection, schedule: Q01DX015 (ip), vehicle: carboxymethylcellulose (CMC) 102 % of control and 91 % of control | dose: 25.0 mg/kg/injection, schedule: Q01DX009 (ip), vehicle: acetone 94 % of control | dose: 25.0 mg/kg/injection, schedule: Q04DX003 (ip), vehicle: saline 96 % of control | dose: 32.0 mg/kg/injection, schedule: Q01DX015 (ip), vehicle: carboxymethylcellulose (CMC) 98 % of control | dose: 50.0 mg/kg/injection, schedule: Q04DX003 (ip), vehicle: saline 91 % of control | [12] 87 % of control

CCCCCCCCCCCCCCCCCCOC(=O)C(C(C)=O)C(c1cccc([N+](=O)[O-])c1)C(C(C)=O)C(=O)O (stereo not given)
inactive: dose: 25.6 mg/kg/injection, schedule: Q04DX002 (ip), vehicle: saline with Tween-80 87 % of control | dose: 64.0 mg/kg/injection, schedule: Q04DX002 (ip), vehicle: saline with Tween-80 95 % of control | dose: 100.0 mg/kg/injection, schedule: Q04DX003 (ip), vehicle: saline with Tween-80 90 % of control | dose: 160.0 mg/kg/injection, schedule: Q04DX002 (ip), vehicle: saline with Tween-80 95 % of control | dose: 400.0 mg/kg/injection, schedule: Q04DX002 (ip), vehicle: saline with Tween-80 91 % of control | dose: 400.0 mg/kg/injection, schedule: Q04DX003 (ip), vehicle: saline with Tween-80 92 % of control

Nc1ccnc(=S)[nH]1
inactive: [7] 92 % of control | [8] 97 % of control | dose: 250.0 mg/kg/injection, schedule: Q01DX Z (ip), vehicle: methylcellulose (MC) 101 % of control | [18] 94 % of control

CC(C)Cc1nc2c([nH]1)c(=O)n(C)c(=O)n2C
inactive: dose: 50.0 mg/kg/injection, schedule: Q01DX001 (ip), vehicle: saline 96 % of control | [12] 104 % of control | [13] 98 % of control

C=C(C)CCCC(C)C/C=N/NC(=O)CNC(=O)C=[N+]=[N-] (stereo not given) (tested in a mixture with another compound)
inactive: dose: 50.0 mg/kg/injection, schedule: Q01DX001 (ip), vehicle: water 100 % of control | dose: 100.0 mg/kg/injection, schedule: Q01DX001 (ip), vehicle: water 93 % of control | dose: 200.0 mg/kg/injection, schedule: Q01DX001 (ip), vehicle: water 91 % of control | dose: 400.0 mg/kg/injection, schedule: Q01DX001 (ip), vehicle: water 100 % of control

CCCC[P+](CCCC)(CCCC)CC(=O)OCC
inactive: dose: 15.0 mg/kg/injection, schedule: Q01DX001 (ip), vehicle: carboxymethylcellulose (CMC) 86 % of control | dose: 60.0 mg/kg/injection, schedule: Q01DX001 (ip), vehicle: carboxymethylcellulose (CMC) 87 % of control

Nc1ccc(I)c([N+](=O)[O-])c1
inactive: dose: 100.0 mg/kg/injection, schedule: Q04DX003 (ip), vehicle: acetone 87 % of control | dose: 200.0 mg/kg/injection, schedule: Q04DX003 (ip), vehicle: acetone 92 % of control | dose: 400.0 mg/kg/injection, schedule: Q04DX003 (ip), vehicle: acetone 101 % of control

O=C(O)COc1cccc(Cl)c1F
inactive: dose: 100.0 mg/kg/injection, schedule: Q04DX002 (ip), vehicle: Klucel (hydroxypropylcellulose) (HPC) 100 % of control | dose: 200.0 mg/kg/injection, schedule: Q04DX002 (ip), vehicle: Klucel (hydroxypropylcellulose) (HPC) 107 % of control | dose: 400.0 mg/kg/injection, schedule: Q04DX002 (ip), vehicle: Klucel (hydroxypropylcellulose) (HPC) 118 % of control

CCN(C(=O)c1ccc2c3c(ccc(C(=O)N(CC)c4ccccc4)c13)CC2)c1ccccc1
inactive: [12] 104 % of control | [13] 104 % of control | [14] 95 % of control
